The values below come from paper PMC4325424 (Cancer cell, 2015).

This test concerns the target T1, glutathione peroxidase 1 (GPx1) (Homo sapiens, UniProt P07203).
T1 sequence (P07203 1-203): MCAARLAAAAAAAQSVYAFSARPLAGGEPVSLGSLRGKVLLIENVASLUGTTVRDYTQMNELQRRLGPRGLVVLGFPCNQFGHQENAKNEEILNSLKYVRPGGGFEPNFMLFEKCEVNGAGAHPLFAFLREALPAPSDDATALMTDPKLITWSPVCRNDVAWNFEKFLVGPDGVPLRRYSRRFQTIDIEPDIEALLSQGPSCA
The test is described as follows: radiometric […]-fumarate binding to bead-bound flag-GPx1.

Each structure is given as a SMILES string.

What is called Kd is the constant that tells how readily two partners part at equilibrium. Read a low Kd as a tighter complex. `O=C(O)/C=C/C(=O)O` [fumarate] had a Kd of 75.5 ± 5.22 µM.
